Test [1] concerns the target T1, His-tagged cytoplasmic domain of EGFR (Homo sapiens, UniProt P00533).
T1 construct: containing the EGFR cDNA encoding amino acids 645 - 1186 preceded by Met-Ala-(His)6; Met-Ala-(His)6 (N); made in house; host or cells: Sf9 insect cells, recombinant baculovirus vHcEGFR52
The experiment in a line: Inhibition of Epidermal Growth Factor Receptor Kinase (EGF-R) using recombinant enzyme, RR-SRC peptide phosphorylation. In kind it is biochemical. The procedure:
The enzyme used in this assay is the His-tagged cytoplasmic domain of EGFR. […] Sf9 cells in 100 mm plates were infected at an moi of 10 pfu/cell and cells were harvested 48 h post infection. A cytoplasmic extract was prepared using 1% Triton X-100 and applied to Ni-NTA column. After washing the column with 20 mM imidazole, HcEGFR was eluted with 250 mM imidazole (in 50 mM Na2HPO4, pH 8.0, 300 mM NaCl). Fractions collected were dialyzed against 10 mM HEPES, pH 7.0, 50 mM NaCl, 10% glycerol, 1ug/mL antipain and leupeptin and 0. 1 mM Pefabloc SC. The protein was frozen in dry ice/methanol and stored -70°C.
For the enzyme reaction, 10 uL of each inhibitor (at various concentrations) were added to each well of a 96-well plate. To this was added 3 uL of enzyme (1: 10 dilution in 10mM HEPES, pH 7.4 for final conc. of 1:120). This was allowed to sit for 10 min on ice and was followed by the addition of 5 ul peptide (80 uM final conc.), 10ul of 4X Buffer (Table A), 0.25 uL ^33P-ATP and 12 uL H2O. The reaction was allowed to run for 90 min at room temperature and was followed by spotting the entire volume on to precut P81 filter papers. The filter discs were washed 2X with 0.5% phosphoric acid and radioactivity was measured using a liquid scintillation counter.

In test [2] the test system is A431. Briefly: Inhibition of Cancer Cell Growth (Sulforhodamine B). In kind it is cell-based, Human. The settings on record: Homo sapiens, A-431, 48 hours exposure, read-out: Inhibition of Cancer Cell Growth as Measured by Cell Number (IC50) A431. The procedure: (§1) After 48 hours exposure to test compounds, cells were fixed with trichloroacetic acid, and stained with Sulforhodamine B. After washing with trichloroacetic acid, bound dye was solubilized in 10 mM Tris base and optical density was determined using plate reader. Under conditions of the assay the optical density is proportional to the number of cells in the well. […] The test procedure is described in details by Philip Skehan et. al. J.Natl. Canc. […]

Test [3] concerns A2780S. Described as above. In kind it is cell-based, Human. The settings on record: Homo sapiens, 48 hours exposure, read-out: Inhibition of Cancer Cell Growth as Measured by Cell Number (IC50) A2780S. The procedure: as §1
Test [4] deals with SW620. The test is described as above. In kind it is cell-based, Human. To be noted: Homo sapiens, SW-620, 48 hours exposure, read-out: Inhibition of Cancer Cell Growth as Measured by Cell Number (IC50) SW620. The procedure: as §1
The subject of test [5] is MCF7. The test is described as above. In kind it is cell-based, Human. The settings on record: Homo sapiens, 48 hours exposure, read-out: Inhibition of Cancer Cell Growth as Measured by Cell Number (IC50) MCF7. The procedure:
as §1

The subject of test [6] is MB435. Described as above. The test is classed as cell-based, Human. To be noted: Homo sapiens, 48 hours exposure, read-out: Inhibition of Cancer Cell Growth as Measured by Cell Number (IC50) MB435. The procedure: as §1
Test [7] has as its system SKBR3. Described as above. In kind it is cell-based, Human. To be noted: Homo sapiens, SK-BR-3, 48 hours exposure, read-out: Inhibition of Cancer Cell Growth as Measured by Cell Number (IC50) SKBR3. The procedure: as §1
In test [8] the test system is A2780DDP. The description is as above. The test is classed as cell-based, Human. The settings on record: Homo sapiens, 48 hours exposure, read-out: Inhibition of Cancer Cell Growth as Measured by Cell Number (IC50) A2780DDP. The procedure: as §1
Test [9] concerns LOX. Described as above. In kind it is cell-based, Human. To be noted: Homo sapiens, 48 hours exposure, read-out: Inhibition of Cancer Cell Growth as Measured by Cell Number (IC50) LOX. The procedure: as §1
[10] abbreviates: recombinant enzyme, average of the number of tests, read-out: IC50.

Converted amounts (≈) assume the structure as drawn. Read-outs that look alike come from different tables or passages of the source.

The term IC50 denotes the concentration that inhibits the measured activity by half.

T1 sequence (P00533 669-1210): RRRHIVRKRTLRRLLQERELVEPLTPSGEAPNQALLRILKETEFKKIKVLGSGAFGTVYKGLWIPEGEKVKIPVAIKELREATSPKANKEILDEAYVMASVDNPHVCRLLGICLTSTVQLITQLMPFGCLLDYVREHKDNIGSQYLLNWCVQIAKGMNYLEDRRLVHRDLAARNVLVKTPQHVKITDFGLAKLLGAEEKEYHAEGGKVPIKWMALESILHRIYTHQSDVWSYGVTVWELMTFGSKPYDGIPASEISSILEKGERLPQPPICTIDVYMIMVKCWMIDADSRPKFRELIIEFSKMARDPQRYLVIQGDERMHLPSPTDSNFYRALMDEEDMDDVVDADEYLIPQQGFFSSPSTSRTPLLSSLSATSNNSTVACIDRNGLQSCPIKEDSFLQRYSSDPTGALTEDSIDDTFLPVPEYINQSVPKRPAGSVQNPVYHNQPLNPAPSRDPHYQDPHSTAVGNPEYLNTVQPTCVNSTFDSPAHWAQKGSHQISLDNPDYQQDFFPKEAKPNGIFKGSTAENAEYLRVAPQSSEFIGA

As for `CCOc1c(Nc2ccc3ncnc(Nc4cccc(Br)c4)c3c2)c(=O)c1=O` [Example 48, 3-[4-(3-Bromo-phenylamino)-quinazolin-6-ylamino]-4-ethoxy-cyclobut-3-ene-1,2-dione], the concentration for half-maximal inhibition (IC50) in test [1] (setting [10]) is 2 nM; in [2], 3.11 µg/mL (≈ 7.08 µM); in test [3] it was 4.74 µg/mL (≈ 10.8 µM); in [4], 2.81 µg/mL (≈ 6.4 µM); in test [5], 5.42 µg/mL (≈ 12.3 µM); in [6], 5.48 µg/mL (≈ 12.5 µM). In addition, the results for the IC50 in test [7], in test [8] and in test [9] were 3.79 µg/mL (≈ 8.63 µM), 3.71 µg/mL (≈ 8.45 µM) and 3.55 µg/mL (≈ 8.08 µM), respectively.
As for `Nc1c(Nc2ccc3ncnc(Nc4cccc(Br)c4)c3c2)c(=O)c1=O` [Example 51, 3-Amino-4-[4-(3-bromo-phenylamino)-quinazolin-6-ylamino]-cyclobut-3-ene-1,2-dione], the IC50 in test [1] (setting [10]) is 7 nM; in test [2] it was 6.84 µg/mL (≈ 16.7 µM); in test [3], 56.9 µg/mL (≈ 139 µM); in [4] it was over 100 µg/mL; in test [5] it was over 100 µg/mL; in [6], over 100 µg/mL. The IC50 came to 6.21 µg/mL (≈ 15.1 µM) in test [7], 6.92 µg/mL (≈ 16.9 µM) in test [8] and 56.5 µg/mL (≈ 138 µM) in [9].
On to `O=C(C#CCCl)Nc1ccc2ncnc(Nc3cccc(Br)c3)c2c1` [Example 12, 4-Chloro-but-2-ynoic acid [4-(3-bromo-phenylamino)-quinazolin-6-y]-amide], for which the IC50 in test [1] (setting [10]) came out at 5 nM; in test [2], 0.03 µg/mL (≈ 0.0722 µM); in test [3] it was 0.03 µg/mL (≈ 0.0722 µM); in test [4] it was 0.06 µg/mL (≈ 0.144 µM); in test [5] it was 0.49 µg/mL (≈ 1.18 µM); in [6], 0.39 µg/mL (≈ 0.938 µM). The IC50 was under 0.01 µg/mL in [7], 0.07 µg/mL (≈ 0.168 µM) in test [8] and 0.04 µg/mL (≈ 0.0962 µM) in [9].
For `COCC#CC(=O)Nc1ccc2ncnc(Nc3cccc(Br)c3)c2c1` [Example 23, 4-Methoxy-but-2-ynoic acid [4-(3-bromo-phenylamino)-quinazolin-6-yl]-amide], the half-maximal inhibitory concentration (IC50) amounted to 0.31 nM in test [1] (setting [10]); 0.05 µg/mL (≈ 0.122 µM) in [2]; 0.12 µg/mL (≈ 0.292 µM) in test [3]; 0.06 µg/mL (≈ 0.146 µM) in test [4]; 0.5 µg/mL (≈ 1.22 µM) in test [5]; 0.8 µg/mL (≈ 1.95 µM) in test [6]. In addition, the 50% inhibitory concentration (IC50) was determined as 0.06 µg/mL (≈ 0.146 µM) in [7], 0.06 µg/mL (≈ 0.146 µM) in [8] and 0.02 µg/mL (≈ 0.0486 µM) in [9].
Take `CCN1CCN(CC#CC(=O)Nc2ccc3ncnc(Nc4cccc(Br)c4)c3c2)CC1` [Example 28, 4-(4-Ethyl-piperazin-1-yl)-but-2-ynoic acid [4-(3-bromophenylamino)-quinazolin-6-yl]-amide]: the IC50 was 5.5 nM in test [1]; 0.6 µg/mL (≈ 1.22 µM) in test [2]; 0.84 µg/mL (≈ 1.7 µM) in test [3]; 2.38 µg/mL (≈ 4.82 µM) in test [4]; 3.09 µg/mL (≈ 6.26 µM) in test [5]; 1.61 µg/mL (≈ 3.26 µM) in test [6]. Further, the IC50 in test [7] is 0.1 µg/mL (≈ 0.203 µM); in test [8], 0.56 µg/mL (≈ 1.13 µM); in test [9] it was 1.94 µg/mL (≈ 3.93 µM).
With `COCOCC#CC(=O)Nc1ccc2ncnc(Nc3cccc(Br)c3)c2c1` [Example 57, 4-Methoxymethoxy-but-2-ynoic acid [4-(3-bromo-phenylamino)-quinazolin-6-yl]-amide], the IC50 in [1] (setting [10]) was determined as 8 nM; in [2], 2.8 µg/mL (≈ 6.35 µM); in test [3], 0.7 µg/mL (≈ 1.59 µM); in test [4], 1.8 µg/mL (≈ 4.08 µM); in [5], 8.7 µg/mL (≈ 19.7 µM); in [6] it was 5.7 µg/mL (≈ 12.9 µM). Besides, the concentration for half-maximal inhibition (IC50) is 1.2 µg/mL (≈ 2.72 µM) in test [7], 2.5 µg/mL (≈ 5.67 µM) in [8] and 0.9 µg/mL (≈ 2.04 µM) in test [9].
Take `CN(C)c1c(Nc2ccc3ncnc(Nc4cccc(Br)c4)c3c2)c(=O)c1=O` [Example 49, 3-[4-(3-Bromo-phenylamino)-quinazolin-6-ylamino]-4-dimethylamino-cyclobut-3-ene-1,2-dione]: the IC50 in test [1] (setting [10]) was 100 nM; in test [2], 2.83 µg/mL (≈ 6.46 µM); in test [3], 4.81 µg/mL (≈ 11 µM); in [4], 3.61 µg/mL (≈ 8.24 µM); in test [5] it was 6.72 µg/mL (≈ 15.3 µM); in test [6], 5.2 µg/mL (≈ 11.9 µM). Further, the 50% inhibitory concentration (IC50) was 3.57 µg/mL (≈ 8.15 µM) in test [7], 3.16 µg/mL (≈ 7.21 µM) in test [8] and 3.48 µg/mL (≈ 7.94 µM) in test [9].
Take `CC(C)(C)[Si](C)(C)OCC#CC(=O)Nc1ccc2ncnc(Nc3cccc(Br)c3)c2c1` [Example 15, 4-(tert-Butyl-dimethyl-silanyloxy)-but-2-ynoic acid [4-(3-bromo-phenylamino)quinazolin-6-yl]-amide]: the IC50 in test [1] (setting [10]) was 6 nM; in [2], 0.04 µg/mL (≈ 0.0782 µM); in [3], 0.02 µg/mL (≈ 0.0391 µM); in [4] it was 0.02 µg/mL (≈ 0.0391 µM); in [5], 0.45 µg/mL (≈ 0.88 µM); in test [6], 0.42 µg/mL (≈ 0.821 µM). In addition, the IC50 in [7] was determined as 0.38 µg/mL (≈ 0.743 µM); in [8], 0.05 µg/mL (≈ 0.0978 µM); in [9] it was 0.03 µg/mL (≈ 0.0587 µM).
`O=C(C#CCN1CCOCC1)Nc1ccc2ncnc(Nc3cccc(Br)c3)c2c1` [Example 19, 4-Morpholin-4-yl-but-2-ynoic acid [4-(3-bromo-phenylamino)-quinazolin-6-yl]-amide]: the IC50 is 50 nM in test [1]; 0.02 µg/mL (≈ 0.0429 µM) in test [2]; 4.37 µg/mL (≈ 9.37 µM) in test [3]; 1.1 µg/mL (≈ 2.36 µM) in test [4]; 6.36 µg/mL (≈ 13.6 µM) in test [5]; 5.95 µg/mL (≈ 12.8 µM) in test [6]. In addition, the IC50 in test [7] amounted to 0.003 µg/mL (≈ 0.00643 µM); in [8] it was 3.32 µg/mL (≈ 7.12 µM); in test [9], 3.55 µg/mL (≈ 7.61 µM).
With `CNc1c(Nc2ccc3ncnc(Nc4cccc(Br)c4)c3c2)c(=O)c1=O` [Example 50, 3-[4-(3-Bromo-phenylamino)-quinazolin-6-ylamino]-4-methylamino-cyclobut-3-ene-1,2-dione], the IC50 in test [1] (setting [10]) is 0.4 nM; in [2], over 100 µg/mL; in test [3], over 100 µg/mL; in test [4], over 100 µg/mL; in [5] it was over 100 µg/mL; in test [6], over 100 µg/mL. Also, the IC50 in test [7], in test [8] and in test [9] was over 100 µg/mL in each case.
